From a melting point compilation (Tetko et al.; mined from patent text by program, amines drawn as free bases though some values may be those of a salt) come the findings set out here.

The structures appear in SMILES notation.

The melting point is the temperature, or range, at which the solid turns liquid.

`COc1ccc(CCc2ccc(C(=O)O)cc2)cc1OC(C)CCCc1ccccc1` (centres undefined) returned a melting point of 112 °C. Next, `COc1cc(OC)nc(-c2c(C)[nH]c3ccccc23)n1`: 182 to 184 °C; `CC(C)(C)c1ccc(C2C=C(c3ccc(C#C[Si](C)(C)C)cc3)NN2c2ccccc2)cc1` (centres undefined): 160 to 162 °C; `CC1CC(=O)c2cc(Cl)ccc2O1` (centres undefined): 100 to 102 °C. In the case of `COc1ccccc1Nc1nc(N)nc2c(OC)cccc12` it was 243 to 244 °C; in that of `O=C(O)c1cccc(-c2ncn(-c3ccc(N4CCCC4)cc3)n2)c1`, 263 to 265 °C; in that of `Nc1nc(CCc2ccccc2)nc2nc(-c3ccco3)nn12`, 235 to 237 °C.

For `O=c1[nH]c(NCCCOc2cccc(CN3CCCCC3)c2)ncc1[N+](=O)[O-]`, the melting point is 161 to 164 °C. Next, `c1ccc(Nc2nsc3nc4ccccc4n23)nc1`: 156 to 157 °C.

`Cc1ccc(S(=O)(=O)N(C(=O)OC(C)(C)C)[C@@H]2CCCC[C@H]2N)cc1` displayed a melting point of 137 to 139 °C.

Take `CC(=O)Nc1cc2c(s1)CCCN(CCCCN1CCN(c3ncccn3)CC1)C2=O`: the melting point fell in the range of 158 to 161 °C. In the case of `CCC(=O)Cn1c(C)cn(N=Cc2cccnc2)c1=O` it was 183 to 184 °C; in that of `CNC(=O)C(=NOC)c1ccccc1C#Cc1ccccc1C`, 128 to 129 °C; in that of `N#CC1CN1C(=O)NC(=O)c1ccc2ccccc2c1` (centres undefined), 164 to 166 °C. In the case of `CC(C)(C)c1ccccc1C(O)(c1ccccc1)c1ncc[nH]1` (centres undefined) it was 185 to 186 °C; in that of `CCOC(CC(=O)Nc1cc(CCNC(=O)C(F)(F)F)ccc1OC)OCC`, 79 to 80 °C.

Take `O=C(Nc1cc(Cl)ccc1O)Nc1cc(C(F)(F)F)ccc1Cl`: the melting point lay within 172 to 173 °C. Next, `CCN(CC)CCNC(=O)c1cnc(-c2ccccc2)nc1S`: 178 to 180 °C; `CCOCc1nc2c(N)nc(C)c(C)c2n1CCC1CCN(C(=O)N2CCOCC2)CC1`: 158 to 160 °C; `Cc1c(-c2ccccc2)c(N2CC[C@H](N(C)C)C2)c2oc(C(C)(C)F)nc2c1C#N`: 130 to 132 °C. `CC(=O)Oc1ccc(-c2ccc(C(C)O)cc2)cc1` (centres undefined): the melting point was in the range of 142 to 144 °C.

`COc1ccc(C2(C#Cc3cccc([N+](=O)[O-])c3)CCCC(=O)C2)cc1OC1CCCC1` (centres undefined) showed a melting point of 46 to 48 °C. Next, `COc1ccc(N)c(C(=O)Cc2nnnn2C)c1`: 170 to 172 °C; `Cc1cc(-n2ccnc2)c2cccc(OCc3c(Cl)ccc(S(=O)(=O)N4CCC[C@H]4C(=O)NCCCNC(=O)c4ccc(C#N)cc4)c3Cl)c2n1`: 118 °C; `CC(C)(C)OC(=O)N(CCCCCCN1C(=O)c2ccccc2C1=O)CCN(CCCCCCN1C(=O)c2ccccc2C1=O)C(=O)OC(C)(C)C`: 96 °C. In the case of `COc1ccc(-c2[nH]nc3c2C(=O)c2c(NC(=O)C4CC4)cccc2-3)cc1` it was 289 °C; in that of `NS(=O)(=O)c1ccc(C2(c3nc4c(F)cccc4s3)C=C(C(F)F)NN2)cc1` (centres undefined), 243 to 245 °C; in that of `CCCCOc1c(CNC(=O)OC(C)(C)C)n(CC(C)(C)C)c(=O)c2ccc(/C=C/C(=O)O)cc12`, 138 to 139 °C. Next, `O[C@@H]1CCCC[C@H]1Nc1ccccc1` (relative stereo): 57 to 58 °C. For `CC(CF)c1ccc(NC(=O)N(C)C)cc1` (centres undefined), the melting point is 145 to 146 °C. Next, `CNC(=O)N(C)C(=O)N1CCN(c2ccccc2)CC1`: 79 to 80 °C; `COCC1CCCN1S(=O)(=O)c1ccc2c(c1)C(=O)C1=NCC3(CCCC3)CN12` (centres undefined): 171 to 172 °C; `CC1CCc2c(C#N)c(F)cc3c(=O)c(C(=O)O)cn1c23` (centres undefined): 300 °C. Next, `Cc1cc(C(=O)NS(=O)(=O)Cc2ccccc2C(F)(F)F)nc(Cl)n1`: 198 to 199 °C.

With `COc1cc(C(=O)OCc2cc(COC(=O)c3ccc(O)c(OC)c3)cc(COC(=O)c3ccc(O)c(OC)c3)c2)ccc1O`, the melting point was determined as 161 °C. Next, `CN1CCN(C2CC3C4CCC5CC(O)C(N6CCC7(CC6)OCCO7)CC5(C)C4CCC3(C)C2O)CC1` (centres undefined): 185 to 187 °C.

`CCOC(=O)Nc1cccc(N2CCN(CCC3CCN(CC(C)=O)CC3)CC2)c1`: the melting point amounted to 118 °C. Next, `CCCCCn1c2ccccc2c2cc(C(=O)N3CCCCC3)ncc21`: 126 to 127 °C; `CC(CCCC(C)(C)O)C1CCC2C3CC=C4CC(O)CC(O)C4(C)C3CCC12C` (centres undefined): 170 to 172 °C.

Regarding `CN1CCN(c2cc(Cl)cc3c2c(=O)n(Cc2cccc(N)c2)c(=O)n3Cc2ccccc2)CC1`, the melting point is 260 to 265 °C. With `O=C(N[C@H](Cc1cccc(OC(F)(F)C(F)F)c1)[C@@H](O)c1ccnc(F)c1)c1cccc2c1C=CCCC2` (racemic), the melting point was in the range of 159 to 160 °C. Next, `COC(=O)C1=CNC=Cc2c1n(C)c1ccccc21`: 131 to 132 °C; `CC(C)C(=O)NCc1ccc(NC(=O)/C=C/c2cnn(C)c2-c2ccc(F)cc2)cc1`: 258 to 259 °C; `CN(C)n1cn[nH]c1=O`: 127 °C. In turn, `CCCn1c2cc(Cl)ccc2c(=O)c2cccn21` gave a melting point of 107 to 108 °C. The compound `OC1(c2ccc(-c3cncnc3)cc2)CN2CCC1CC2` (centres undefined) showed a melting point of 184 to 185 °C. With `Cc1nc2cc3c(cc2c(=O)[nH]1)CCC3`, the melting point worked out at 284 °C.

In turn, `CCCNC(=O)CN1C(=O)C2(COc3cc4c(cc32)CCO4)c2ccccc21` (centres undefined) returned a melting point of 207 to 209 °C. `CC(C)n1nc(C(=O)O)c2ccccc21` gave a melting point of 160 to 163 °C. Next, `CCn1c(Cl)c(C=O)c(=O)n(CC)c1=O`: 88 to 89 °C; `COCC(=O)NCc1cccc2c1CN(C1CCC(=O)NC1=O)C2=O` (centres undefined): 232 to 234 °C; `COc1ccc(C(=O)O)cc1CCCN(C)C`: 135 to 138 °C. Next, `Cn1nc(-c2ccccc2)nc1-c1ccccn1`: 106 to 108 °C. `O=C(O)CCCOc1ccc2nc3[nH]c(=O)[nH]c3cc2c1` yielded a melting point greater than 320 °C. For the compound `COc1cc2oc(=O)c(CCN3CCN(c4ccccc4OC)CC3)c(C)c2cc1O`, the melting point lay within 235 to 237 °C. Turning to `CNc1nc(-c2ccc(Br)cc2)cs1`, the melting point was 147 °C. In the case of `C1=Cn2ccnc2Cc2ccccc21` it was 85.5 °C; in that of `CS(=O)(=O)c1ccc(-c2c(F)c3cccccc-3c2-c2ccccc2)cc1`, 120 to 122 °C; in that of `COC(=O)c1cccc(F)c1C=NC(C)(C(N)=O)C(C)C` (centres undefined), 125 to 131 °C. Next, `O=C(Nc1cccc2c(OC(=O)c3c(Cl)cccc3Cl)ccnc12)c1c(Cl)cccc1Cl`: 248 °C; `OC(CCC(c1ccccc1)c1ccccc1)c1cncn1Cc1ccccc1` (centres undefined): 160 to 168 °C; `COC(=O)C(Cc1cc(C(C)(C)C)c(O)c(C)c1C)C(=O)OC`: 140 to 143 °C. In the case of `CCc1ccc2c3c(c(=O)oc2c1)CNCC3` it was 80 to 85 °C; in that of `COc1ccc(C2OCc3ccccc3O2)cc1O` (centres undefined), 105 to 106 °C.
